Measured values from patent publication US11186564B2, “Dual NAV1.2/5HT2a inhibitors for treating CNS disorders” (Sunovion Pharmaceuticals Inc., priority 2016, dated 2021).
Like-named read-outs stand apart in the source and are kept apart here.

Experiments:
[1] = target: human sodium channel NaV1.2 (Homo sapiens, UniProt Q99250); test: NaV1.2 inhibition, automated patch-clamp (Q-Patch HTX), slow inactivated state (state C); type: cell-based; conditions: hNaV1.2 CHO cells, slow inactivated state; for inhibition at 1 µM: 1 μM compound, read-out: NaV1.2 (% inh), 1 μM; for IC50: read-out: NaV1.2 IC50; for inhibition at 10 µM: 10 μM compound, read-out: NaV1.2 (% inh), 10 μM
Sequence of human sodium channel NaV1.2 (Q99250 whole entry): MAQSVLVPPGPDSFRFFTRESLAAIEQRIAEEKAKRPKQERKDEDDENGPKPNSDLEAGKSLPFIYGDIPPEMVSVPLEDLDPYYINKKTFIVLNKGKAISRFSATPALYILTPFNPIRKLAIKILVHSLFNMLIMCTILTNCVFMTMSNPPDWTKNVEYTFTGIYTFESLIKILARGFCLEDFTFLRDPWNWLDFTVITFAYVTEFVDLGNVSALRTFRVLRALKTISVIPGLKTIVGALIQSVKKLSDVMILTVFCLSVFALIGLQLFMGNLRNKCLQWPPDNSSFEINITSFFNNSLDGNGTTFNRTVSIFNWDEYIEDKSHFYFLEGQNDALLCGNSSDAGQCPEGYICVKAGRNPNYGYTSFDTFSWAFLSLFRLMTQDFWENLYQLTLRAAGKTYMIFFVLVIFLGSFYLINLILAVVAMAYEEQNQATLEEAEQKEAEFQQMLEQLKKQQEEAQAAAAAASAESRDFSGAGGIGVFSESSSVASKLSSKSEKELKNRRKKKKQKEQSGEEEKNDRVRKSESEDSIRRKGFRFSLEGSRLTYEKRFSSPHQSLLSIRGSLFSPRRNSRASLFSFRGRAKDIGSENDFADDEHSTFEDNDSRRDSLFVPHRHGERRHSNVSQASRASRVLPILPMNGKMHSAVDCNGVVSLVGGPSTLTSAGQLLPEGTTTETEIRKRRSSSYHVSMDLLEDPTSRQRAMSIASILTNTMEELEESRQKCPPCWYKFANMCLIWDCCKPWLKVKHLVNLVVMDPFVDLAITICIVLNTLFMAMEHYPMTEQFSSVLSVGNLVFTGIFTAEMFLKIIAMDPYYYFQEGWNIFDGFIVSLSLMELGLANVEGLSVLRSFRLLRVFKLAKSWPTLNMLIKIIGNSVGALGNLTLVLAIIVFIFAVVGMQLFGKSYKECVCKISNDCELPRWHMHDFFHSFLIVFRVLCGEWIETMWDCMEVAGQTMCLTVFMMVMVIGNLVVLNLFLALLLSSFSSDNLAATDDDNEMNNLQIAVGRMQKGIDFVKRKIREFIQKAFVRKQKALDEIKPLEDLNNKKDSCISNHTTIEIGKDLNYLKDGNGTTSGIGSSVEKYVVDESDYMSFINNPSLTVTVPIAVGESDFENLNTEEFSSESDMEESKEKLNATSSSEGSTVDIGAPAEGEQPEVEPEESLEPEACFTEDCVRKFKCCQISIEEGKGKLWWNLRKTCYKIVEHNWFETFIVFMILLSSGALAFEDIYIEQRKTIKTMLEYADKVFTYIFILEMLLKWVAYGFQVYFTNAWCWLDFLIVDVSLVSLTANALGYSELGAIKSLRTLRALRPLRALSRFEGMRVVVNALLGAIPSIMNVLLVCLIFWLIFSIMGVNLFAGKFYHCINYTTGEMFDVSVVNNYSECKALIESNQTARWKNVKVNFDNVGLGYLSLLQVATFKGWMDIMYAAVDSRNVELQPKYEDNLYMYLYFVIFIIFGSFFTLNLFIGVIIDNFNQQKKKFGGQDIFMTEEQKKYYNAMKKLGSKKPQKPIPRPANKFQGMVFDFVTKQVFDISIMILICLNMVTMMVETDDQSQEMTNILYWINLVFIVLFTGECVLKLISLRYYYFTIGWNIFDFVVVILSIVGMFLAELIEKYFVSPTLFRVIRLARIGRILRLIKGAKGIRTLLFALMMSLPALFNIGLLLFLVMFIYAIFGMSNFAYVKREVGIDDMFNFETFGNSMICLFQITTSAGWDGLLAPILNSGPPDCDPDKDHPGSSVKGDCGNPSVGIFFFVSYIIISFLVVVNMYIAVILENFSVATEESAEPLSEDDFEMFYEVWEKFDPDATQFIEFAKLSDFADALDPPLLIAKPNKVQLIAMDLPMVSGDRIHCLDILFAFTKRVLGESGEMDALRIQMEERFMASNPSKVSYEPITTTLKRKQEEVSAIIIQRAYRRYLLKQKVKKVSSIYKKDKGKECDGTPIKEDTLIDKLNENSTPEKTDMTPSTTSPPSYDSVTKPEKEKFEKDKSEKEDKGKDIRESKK
Text: In vitro method for NaV1.2 inhibition assays: The methods utilized to assess the inhibitory activity of compounds on NaV1.2 were based on the methods described by Liu et al. [Liu Y, Beck E J, & Flores C M (2011): Validation of a patch clamp screening protocol that simultaneously measures compound activity in multiple states of the voltage-gated sodium channel Nav1.2. Assay Drug Development Technology 9, 628-634]. For these electrophysiology assays, a cell line (Chinese Hamster Ovarian K-1 cells (CHO K-1)) engineered to stably express human sodium channel NaV1.2 was purchased from Millipore Corporation (catalog no. CYL3023). The electrophysiology measurements were performed using automated patch-clamp methods on a Q-Patch HTX instrument by scientists at Evotec AG under contract with Sunovion.
The solutions utilized for the Qpatch experiments were similar buffered solutions to those described by Liu et al. [Liu Y, Beck E J, & Flores C M (2011)]. The extracellular solution contained 140 millimolar sodium chloride, 4 millimolar potassium chloride, 2 millimolar calcium chloride, 1 millimolar magnesium chloride, 10 millimolar 4-(2-hydroxyethyl)-1-piperazineethanesulfonic acid (HEPES), and 10 millimolar glucose (pH adjusted to 7.4 with sodium hydroxide). The intracellular solution contained 100 millimolar cesium fluoride, 45 millimolar cesium chloride, 10 millimolar HEPES, 5 millimolar ethylene glycol tetraacetic acid (EGTA), and 5 millimolar glucose (pH adjusted to 7.2 with cesium hydroxide).
The biophysical experiments of Lui et al. [Liu Y, Beck E J, & Flores C M (2011)] were replicated to assess the fast, slow and total inactivation characteristics of the human Nav1.2 channel
Based upon results from studies of the fast, slow and total inactivation characteristics of the human Nav1.2 channel, a voltage protocol involving a sequence of consecutive pulses of current was used to measure channel activity in several states [Liu Y, Beck E J, & Flores C M (2011)]. The monolayer of CHO K-1 cells stably expressing human sodium channel NaV1.2 (hNaV1.2 CHO cells) was maintained in the Qpatch instrument at a potential of −100 millivolts (mV) except when the voltage protocol was being executed. The first pulse in the protocol involved a 100 millisecond depolarization to 0 mV to enable measurement of channel availability in the closed state (state A). The potential was then maintained at −90 mV for 15 milliseconds, followed by a five millisecond period of depolarization to 0 mV to enable measurement of channel availability after partial recovery from fast inactivation (state B). Next, the potential was maintained at −90 mV for 300 milliseconds, followed by ten seconds at −50 mV, 15 milliseconds at −90 mV, and finally another five millisecond period of depolarization to 0 mV to enable measurement of channel availability after additional recovery from fast inactivation and significant entry into the slow inactivated state (state C). Finally, after an additional 300 millisecond period at −90 mV, another five millisecond period of depolarization to 0 mV was employed to enable measurement of channel availability after partial recovery from the slow inactivated state (state D). Measurements of activity at state C were used to assess the activity of the NaV1.2 channel in the slow inactivated state. Comparison of activity after addition of test compounds or reference compounds with activity after addition of vehicle only provided a measure of percent remaining activity from which percent inhibition was calculated. […] A slight modification of this protocol was utilized to provide measurements as a function of compound concentration, which enabled IC50 values to be determined. IC50 values were calculated by non-linear least squares regression of the data (percent inhibition of ion channel NaV1.2 activity in the slow inactivated state) onto equation (1): % inhibition=100%/(1+(IC50/[compound]) equation (1)
J Pharmacol Exp Ther. 2008 July; 326(1):89-99.].

[2] = target: T1, recombinant human serotonin receptor 5-HT2A (Homo sapiens, UniProt P28223); test: 5-HT2A antagonist Ca2+ assay in CHO-K1 cells (method A aequorin luminescence / method B FLIPR fluorescence); type: cell-based; conditions: antagonist mode vs EC80 of reference agonist, method A or B
T1 construct: expressed in transfected cells; method B: loaded with Ca2+ dye
T1 sequence (P28223 whole entry): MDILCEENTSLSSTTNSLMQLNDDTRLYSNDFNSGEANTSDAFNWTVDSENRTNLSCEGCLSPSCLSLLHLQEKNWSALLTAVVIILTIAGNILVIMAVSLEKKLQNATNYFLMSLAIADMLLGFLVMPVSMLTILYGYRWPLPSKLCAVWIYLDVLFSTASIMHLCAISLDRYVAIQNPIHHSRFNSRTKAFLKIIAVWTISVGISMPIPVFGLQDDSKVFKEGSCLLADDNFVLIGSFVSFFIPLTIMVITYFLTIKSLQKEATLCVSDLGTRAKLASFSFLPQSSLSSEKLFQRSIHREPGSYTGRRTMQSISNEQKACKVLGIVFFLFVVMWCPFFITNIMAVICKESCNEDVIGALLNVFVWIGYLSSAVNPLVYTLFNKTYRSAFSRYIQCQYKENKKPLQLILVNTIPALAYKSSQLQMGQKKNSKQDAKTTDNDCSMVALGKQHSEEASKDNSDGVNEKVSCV
In short: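 Method A: CHO-K1 cells co-expressing human 5-HT2A and mitochondrial apoaequorin were given reference agonist at EC80 15 min after compound, with luminescence read. Method B: dye-loaded 5-HT2A CHO-K1 cells were pretreated with compound, then given serotonin at EC80, with FLIPR fluorescence read. IC50s came from nonlinear fits of percent inhibition.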

Row | Structure (SMILES) | inhibition at 1 µM [1] [%] | IC50 ([2]; read-out: 5HT2A IC50) [µM] | IC50 [1] [nM] | IC50 ([2]; 5HT2A IC50, μM) [µM] | inhibition at 10 µM [1] [%]
1 | COc1ccc2c(c1)C(CN1CC[C@H](Oc3ccccc3OC)C[C@@H]1C)CC2 (stereo partly drawn) [Example 104, (2S,4S)-1-((6-methoxy-2,3-dihydro-1H-inden-1-yl)methyl)-4-(2-methoxyphenoxy)-2-methylpiperidine] | 46 | 0.26 |  |  | 
2 | c1ccc2c(c1)CCC2CN1CCC2(CCc3ncccc3O2)CC1 (stereo not drawn) [Example 403, 1-((2,3-dihydro-1H-inden-1-yl)methyl)-3′,4′-dihydrospiro[piperidine-4,2′-pyrano[3,2-b]pyridine]] | -4 | 0.004 |  |  | 
3 | O[C@@H](CO[C@H]1CCc2ccccc21)CN1CCC(Oc2ccc(F)cc2)CC1 [Example 238, (R)-1-(((S)-2,3-dihydro-1H-inden-1-yl)oxy)-3-(4-(4-fluorophenoxy)piperidin-1-yl)propan-2-ol] | 47 | 0.24 |  |  | 
4 | O[C@@H](COC1CCCCC1)CN1[C@@H]2CC[C@H]1CN(c1ccccc1)C2 [Example 288, (R)-1-(cyclohexyloxy)-3-((1R,5S)-3-phenyl-3,8-diazabicyclo[3.2.1]octan-8-yl)propan-2-ol] |  |  | 440 | 0.04 | 
5 | O=C1Nc2ccccc2CC12CCN(C[C@H](O)COc1ccccc1)CC2 [Example 445, (S)-1-(2-hydroxy-3-phenoxypropyl)-1′,4′-dihydro-2′H-spiro[piperidine-4,3′-quinolin]-2′-one] | -2 | 0.3 |  |  | 
6 | Fc1ccc(OC2COC3(C2)CN(CC2Cc4cccnc4C2)C3)cc1 (stereo not drawn) [Example 370, 2-((6,7-dihydro-5H-cyclopenta[b]pyridin-6-yl)methyl)-7-(4-fluorophenoxy)-5-oxa-2-azaspiro[3.4]octane] |  | 0.1 | 2010 |  | 
7 | O[C@@H](CO[C@@H]1CCc2ccccc21)CN1CC[C@@H](Oc2ccc(F)cc2)C1 [Example 47, (R)-1-(((R)-2,3-dihydro-1H-inden-1-yl)oxy)-3-((R)-3-(4-fluorophenoxy)pyrrolidin-1-yl)propan-2-ol] |  | 0.1 | 360 |  | 
8 | CN(C)c1ccc2c(c1)C(CN1CCC(Oc3ccc(F)cc3)CC1)CC2 (stereo not drawn) [Example 116, 3-((4-(4-fluorophenoxy)piperidin-1-yl)methyl)-N,N-dimethyl-2,3-dihydro-1H-inden-5-amine] |  | 0.01 | 2340 |  | 
9 | c1ccc2c(c1)CC(CN1CCC3(CC1)Cc1ccccc1O3)C2 [Example 396, 1′-((2,3-dihydro-1H-inden-2-yl)methyl)-3H-spiro[benzofuran-2,4′-piperidine]] |  | 0.09 | 170 |  | 
10 | O=C1CCc2ccccc2N1CCN1CCC(Oc2ccc(F)cc2)CC1 [Example 190, 1-(2-(4-(4-fluorophenoxy)piperidin-1-yl)ethyl)-3,4-dihydroquinolin-2(1H)-one] | 25 | 0.01 |  |  | 
11 | N#Cc1ccc(OC2CCN(CC3CCOc4ccccc43)CC2)cc1 (stereo not drawn) [Example 166, 4-((1-(chroman-4-ylmethyl)piperidin-4-yl)oxy)benzonitrile] | -2 | 0.31 |  |  | 
12 | c1ccc2c(c1)CCC2CN1CCC2(CCc3ccncc3O2)CC1 (stereo not drawn) [Example 405, 1-((2,3-dihydro-1H-inden-1-yl)methyl)-3′,4′-dihydrospiro[piperidine-4,2′-pyrano[2,3-c]pyridine]] | 18 | 0.18 |  |  | 
13 | COc1ccc2c(c1)C(CN1CCC(OCc3ccccc3Cl)CC1)CC2 (stereo not drawn) [Example 244, 4-((2-chlorobenzyl)oxy)-1-((6-methoxy-2,3-dihydro-1H-inden-1-yl)methyl)piperidine] |  | 0.06 | 160 |  | 
14 | Fc1ccc(OCCCN2CCN(c3nsc4ccccc34)CC2)cc1 [Example 73, 3-(4-(3-(4-fluorophenoxy)propyl)piperazin-1-yl)benzo[d]isothiazole] |  | 0.002 |  |  | 91
15 | CC(C1CCc2ccccc21)N1CCC(Oc2ccc(F)cc2)CC1 (stereo not drawn) [Example 123, 1-(1-(2,3-dihydro-1H-inden-1-yl)ethyl)-4-(4-fluorophenoxy)piperidine] | 71 | 0.44 |  |  | 
16 | OC(COC1CCCCC1)CN1C[C@@H]2C[C@H](C1)N(c1ccccc1)C2 (stereo partly drawn) [Example 331, 1-(cyclohexyloxy)-3-((1S,5R)-6-phenyl-3,6-diazabicyclo[3.2.1]octan-3-yl)propan-2-ol] |  | 1.64 | 310 |  | 
17 | Fc1ccc(OC2CCN(CC3COCc4ccccc43)CC2)cc1 (stereo not drawn) [Example 160, 4-(4-fluorophenoxy)-1-(isochroman-4-ylmethyl)piperidine] | 32 | 0.13 |  |  | 
18 | O=C1c2ccccc2CCCN1CCCN1CCC(Oc2ccc(F)cc2)CC1 [Example 223, 2-(3-(4-(4-fluorophenoxy)piperidin-1-yl)propyl)-2,3,4,5-tetrahydro-1H-benzo[c]azepin-1-one] |  | 0.03 |  |  | 68
19 | O=C1c2cccnc2CCN1CCN1CCC(Oc2ccc(F)cc2)CC1 [Example 207, 6-(2-(4-(4-fluorophenoxy)piperidin-1-yl)ethyl)-7,8-dihydro-1,6-naphthyridin-5(6H)-one] |  | 0.03 |  |  | 38
20 | Clc1ccccc1OCCN1CCN(c2nsc3ccccc23)CC1 [Example 69, 3-(4-(2-(2-chlorophenoxy)ethyl)piperazin-1-yl)benzo[d]isothiazole] |  | 0.003 |  |  | 91
21 | COc1ccccc1OC1CCN(CC2Cc3ccccc3C2)CC1 [Example 136, 1-((2,3-dihydro-1H-inden-2-yl)methyl)-4-(2-methoxyphenoxy)piperidine] | 50 | 0.06 |  |  | 
22 | Fc1ccc(OC2CCN(CCC3CCc4cccnc43)CC2)cc1 (stereo not drawn) [Example 175, 7-(2-(4-(4-fluorophenoxy)piperidin-1-yl)ethyl)-6,7-dihydro-5H-cyclopenta[b]pyridine] |  | 0.01 | 440 |  | 
23 | OC(COC1CCCCC1)CN1CCC2(CCN(c3ccccc3)CC2)C1 (stereo not drawn) [Example 350, 1-(cyclohexyloxy)-3-(8-phenyl-2,8-diazaspiro[4.5]decan-2-yl)propan-2-ol] |  | 0.61 | 1680 |  | 
24 | CN(C)c1ccc(OC2CCN(CCN3CCc4ccccc4C3=O)CC2)cc1 [Example 201, 2-(2-(4-(4-(dimethylamino)phenoxy)piperidin-1-yl)ethyl)-3,4-dihydroisoquinolin-1(2H)-one] |  | 2.17 |  |  | 39
25 | Fc1ccc(O[C@H]2CCN(CC3COCc4ccccc43)C2)cc1 (stereo partly drawn) [Example 12, (3S)-3-(4-fluorophenoxy)-1-(isochroman-4-ylmethyl)pyrrolidine] |  | 0.3 | 3230 |  | 
26 | O=C1c2ccccc2CCN1CCN1CC[C@H](Oc2ccc(F)cc2)C1 [Example 26, (S)-2-(2-(3-(4-fluorophenoxy)pyrrolidin-1-yl)ethyl)-3,4-dihydroisoquinolin-1(2H)-one] |  | 0.17 |  |  | 70
27 | COc1cccc(OC2CCN(CCCN3CCc4ccccc4C3=O)CC2)c1 [Example 221, 2-(3-(4-(3-methoxyphenoxy)piperidin-1-yl)propyl)-3,4-dihydroisoquinolin-1(2H)-one] |  | 0.98 | 1000 |  | 
